Experimental data taken from patent publication US12543736B2, “Herbicidal compositions comprising mesotrione” (BASF SE, priority 2024, dated 2026).

What was measured:
[1] = test system: Digitaria sanguinalis; assay: Example 2 post-emergence greenhouse trial, DIGSA; type: in vivo; conditions: growth stage 12, 7 DAT
Procedure: In the examples below, using the method of S. R. Colby (1967) “Calculating synergistic and antagonistic responses of herbicide combinations”, Weeds 15, p. 22ff., the value E, which is expected if the activity of the individual active compounds is only additive, was calculated: [formula] • where • X=percent activity using active herbicide A at an application rate a; • Y=percent activity using active herbicide B (e.g. mesotrione) at an application rate b; • E=expected activity (in %) by A+B at application rates a+b. If the value found experimentally is higher than the value E calculated according to Colby, a synergistic effect is present. The culture containers used were plastic pots containing loamy sand with approximately 3.0% of humus as substrate. The seeds of the test plants were sown separately for each species. For the post-emergence treatment, the test plants were grown to a plant height of from 3 to 15 cm, depending on the plant habit, and only then treated with the active compounds which had been suspended or emulsified in water. To this end, the test plants were either sown directly, and grown in the same containers, or they were first grown separately as seedlings and transplanted into the test containers a few days prior to treatment. Depending on the species, the plants were kept at 10-25° C. and 20-35° C., respectively. The test period extended over 2 to 4 weeks. During this time, the plants were tended and their response to the individual treatments was evaluated. Evaluation was carried out using a scale from 0 to 100. 100 means no emergence of the plants, or complete destruction of at least the above-ground parts, and 0 means no damage or normal course of growth. A good herbicidal activity is given at values of at least 70, and very good herbicidal activity is given at values of at least 85. Post-Emergence Application of Herbicide A-1 (A-1) and Mesotrione (B) in Greenhouse Trials Herbicide A-1 (342 g/l) and mesotrione (480 g/l) were, together with addition of 0.5 v/v % MSO (methylated sed oil) as adjuvant, formulated in water as distribution medium (water volume 200 l/ha) and sprayed with commercial flat fan nozzles.

[2] = test system: Amaranthus retroflexus; assay: Example 3 post-emergence field trial, AMARE; type: in vivo; conditions: height 10-12 cm; for % herbicidal activity A-1 / % herbicidal activity B: 42 DAT
Procedure: In the examples below, using the method of S. R. Colby (1967) “Calculating synergistic and antagonistic responses of herbicide combinations”, Weeds 15, p. 22ff., the value E, which is expected if the activity of the individual active compounds is only additive, was calculated: [formula] • where • X=percent activity using active herbicide A at an application rate a; • Y=percent activity using active herbicide B (e.g. mesotrione) at an application rate b; • E=expected activity (in %) by A+B at application rates a+b. If the value found experimentally is higher than the value E calculated according to Colby, a synergistic effect is present. Evaluation was carried out using a scale from 0 to 100. 100 means no emergence of the plants, or complete destruction of at least the above-ground parts, and 0 means no damage or normal course of growth. A good herbicidal activity is given at values of at least 70, and very good herbicidal activity is given at values of at least 85. Post-Emergence Application of Herbicide A-1 (A-1) and Mesotrione (B) in Field Trials Herbicide A-1 (342 g/l) and mesotrione (100 g/l) were, together with addition of 0.5 v/v % MSO (methylated sed oil) as adjuvant, formulated in water as distribution medium (water volume 200 l/ha) and sprayed with commercial flat fan nozzles.

[3] = 7 DAT, g ai/ha: A-1 12.5, B 105
[4] = 7 DAT, g ai/ha: A-1 12.5, B 210
[5] = 21 DAT, g ai/ha: A-1 12.5, B 210

| Compound | % herbicidal activity ([1]; g ai/ha: A-1 0.25, B 50) | % herbicidal activity ([1]; g ai/ha: A-1 0.25, B 100) | % herbicidal activity ([1]; g ai/ha: A-1 0.5, B 50) | % herbicidal activity A-1 ([2]; A-1 12.5 g ai/ha) | % herbicidal activity A-1 ([2]; A-1 18 g ai/ha) | % herbicidal activity [2, 3] | % herbicidal activity [2, 4] | % herbicidal activity ([2]; 7 DAT, g ai/ha: A-1 18, B 105) | % herbicidal activity ([2]; 7 DAT, g ai/ha: A-1 18, B 210) | % herbicidal activity [2, 5] | % herbicidal activity ([2]; 21 DAT, g ai/ha: A-1 18, B 105) | % herbicidal activity ([2]; 21 DAT, g ai/ha: A-1 18, B 210) | % herbicidal activity B ([2]; B 210 g ai/ha (row with A-1 12.5)) | % herbicidal activity B ([2]; B 210 g ai/ha (row with A-1 18)) |
| --- | --- | --- | --- | --- | --- | --- | --- | --- | --- | --- | --- | --- | --- | --- |
| CCOC(=O)COc1ccccc1Oc1nc(-n2c(=O)cc(C(F)(F)F)n(C)c2=O)c(F)cc1Cl [A-1, ethyl 2-[2-[[3-chloro-5-fluoro-6-[3-methyl-2,6-dioxo-4-(trifluoromethyl)pyrimidin-1-yl]-2-pyridyl]oxy]phenoxy]acetate] | 30% | 30% | 80% | 80% | 85% | 85% | 80% | 93% | 90% | 80% | 80% | 75% | – | – |
| CS(=O)(=O)c1ccc(C(=O)C2C(=O)CCCC2=O)c([N+](=O)[O-])c1 [B, mesotrione] | 70% | 80% | 70% | – | – | 65% | 65% | 65% | 65% | 65% | 65% | 65% | 65% | 80% |
